Experimental data as given in ChEMBL document CHEMBL1138442, “Structural insight into the inhibition of human kynurenine aminotransferase I/glutamine transaminase K” (J Med Chem, 2009).
Calls of active or inactive are those of the source. The calls are words filed in the database; no cut-off is given here.

Experiments:
[1] = biological target: T1, Kynurenine--oxoglutarate transaminase 1 (Homo sapiens) (UniProt Q16773); assay: (§1) Inhibition of human recombinant KAT1 expressed in Sf9 cells
T1 sequence (whole entry): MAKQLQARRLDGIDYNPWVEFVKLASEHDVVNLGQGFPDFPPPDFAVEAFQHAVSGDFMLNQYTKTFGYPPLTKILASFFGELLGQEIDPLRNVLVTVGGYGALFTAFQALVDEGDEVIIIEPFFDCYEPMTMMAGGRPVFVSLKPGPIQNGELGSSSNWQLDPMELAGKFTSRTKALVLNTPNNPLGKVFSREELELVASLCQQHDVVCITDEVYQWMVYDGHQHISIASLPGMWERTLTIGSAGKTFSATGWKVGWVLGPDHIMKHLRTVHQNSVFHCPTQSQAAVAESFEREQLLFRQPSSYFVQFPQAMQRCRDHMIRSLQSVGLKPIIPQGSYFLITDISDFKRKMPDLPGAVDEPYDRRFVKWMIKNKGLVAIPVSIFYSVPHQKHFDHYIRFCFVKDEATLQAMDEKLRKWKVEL

[2] = biological target: T1, Kynurenine--oxoglutarate transaminase 1 (Homo sapiens); assay: Inhibition of human recombinant KAT1 expressed in Sf9 cells assessed as decrease in enzyme activity at 25 % ligand concentration; design: scale not given: the % may be the effect or the level left
[3] = biological target: T2, Kynurenine--oxoglutarate transaminase 1 (Homo sapiens, UniProt Q16773); assay: as §1
T2 sequence (Q16773 whole entry): T1 sequence (whole entry)

Row | Structure (SMILES) | Activity [1] | also measured
1 | O=C(O)Cc1c[nH]c2ccccc12 | Active | –
2 | OCC(O)CO | – | Activity [2]: 10%
3 | O=C(O)CCc1c[nH]c2ccccc12 [INDOLYLPROPIONIC ACID] | – | IC50 [3]: 140 µM
4 | O=C(O)C(O)Cc1c[nH]c2ccccc12 (racemic) | – | IC50 [3]: 220 µM
5 | N[C@@H](Cc1c[nH]c2ccccc12)C(=O)O | Active | –
6 | O=C(O)/C=C/c1c[nH]c2ccccc12 | Active | –
7 | O=C(O)C(=O)Cc1c[nH]c2ccccc12 | Active | –
